Results published in US5563134A (Sandoz Ltd., priority 1993, dated 1996).
Like-named read-outs stand apart in the source and are kept apart here.

How the values were obtained:
[1] = target: T1, horseradish peroxidase (Armoracia rusticana, UniProt P00433); assay: Clozapine metabolism by peroxidase, disappearance of UV absorption at 290 nm; type: biochemical
T1 sequence (P00433 31-338 limits assumed): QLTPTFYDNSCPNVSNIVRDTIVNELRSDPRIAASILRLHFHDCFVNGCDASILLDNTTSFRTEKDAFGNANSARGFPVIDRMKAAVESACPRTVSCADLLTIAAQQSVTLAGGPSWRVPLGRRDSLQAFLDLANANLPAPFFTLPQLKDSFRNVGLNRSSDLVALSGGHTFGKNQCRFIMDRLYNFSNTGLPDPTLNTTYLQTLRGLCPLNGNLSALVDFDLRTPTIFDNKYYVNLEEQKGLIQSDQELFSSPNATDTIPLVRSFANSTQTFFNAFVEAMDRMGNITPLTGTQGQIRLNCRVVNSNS

[2] = test system: human myeloperoxidase or horseradish peroxidase; assay: HPLC with on-line radioactivity detection of tritium-labeled clozapine incubated with peroxidase and hydrogen peroxide; type: biochemical
Protocol: For HPLC a reversed phase column (Supelco Inc., Bellefonte Pa. USA LC-18-DB, 5 μm, 250×4.6 mm) was used. The mobile phase consisted of (NH4)2 CO3 buffer pH 8.5 (solvent A) and acetonitrile (solvent B). The proportion of solvent B was 0% for 5 minutes and was increased to reach 20% at 10 minutes, 24% at 60 minutes and 80% at 100 minutes. […] Instead two radioactive peaks eluting at 28 and 53 minutes from the HPLC appeared.

[3] = test system: horseradish peroxidase (or human myeloperoxidase); type: biochemical
Protocol: (§1) Oxygen consumption has also been observed when horseradish peroxidase was replaced with human myeloperoxidase (10 units) and GSH with NADPH (10 mM).

[4] = test system: granulocytes/polymorphonuclear leucocytes (PMN's); assay: Covalent binding of radiolabeled clozapine to isolated PMN's; type: cell-based, human
Protocol: 4) In another test heparinized peripheral blood was obtained from normal, healthy male volunteers, and granulocytes/polymorphonuclear leucocytes (PMN's) were isolated within 1-2 hours using an isolation kit (United Technologies Packard, Los Alamos, USA). PMN's were suspended in RPMI 1640 (Gibco, Basel, Switzerland) medium and adjusted to about 4×10^6 cells/ml before fetal calf serum was added (10% v/v).

[5] = target: horseradish peroxidase (or human myeloperoxidase) (Homo sapiens, UniProt P05164); type: biochemical; settings: clozapine 100 μM, human myeloperoxidase 10 units, NADPH 10 mM, in place of horseradish peroxidase and GSH
horseradish peroxidase (or human myeloperoxidase) (Homo sapiens, UniProt P05164), sequence (P05164 165-278 limits assumed): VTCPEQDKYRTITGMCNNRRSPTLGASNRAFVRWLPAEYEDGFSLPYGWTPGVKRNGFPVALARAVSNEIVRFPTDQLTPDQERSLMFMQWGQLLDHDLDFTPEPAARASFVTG
horseradish peroxidase (or human myeloperoxidase) (Homo sapiens, UniProt P05164), sequence (P05164 279-745 limits assumed): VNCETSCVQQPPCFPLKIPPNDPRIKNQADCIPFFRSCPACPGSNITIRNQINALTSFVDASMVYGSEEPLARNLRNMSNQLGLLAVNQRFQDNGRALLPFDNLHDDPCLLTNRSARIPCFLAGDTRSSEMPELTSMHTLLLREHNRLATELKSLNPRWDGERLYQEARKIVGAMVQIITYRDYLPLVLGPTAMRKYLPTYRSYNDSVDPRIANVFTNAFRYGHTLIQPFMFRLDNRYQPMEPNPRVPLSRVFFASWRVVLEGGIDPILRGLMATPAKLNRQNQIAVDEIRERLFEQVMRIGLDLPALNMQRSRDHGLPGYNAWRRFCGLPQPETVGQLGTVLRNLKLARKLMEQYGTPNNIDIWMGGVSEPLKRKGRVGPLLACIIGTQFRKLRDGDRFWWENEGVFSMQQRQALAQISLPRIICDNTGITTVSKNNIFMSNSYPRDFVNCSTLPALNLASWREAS
Protocol: as §1

[6] = test system: patients refractory and/or intolerant to classical antipsychotic drug treatment; settings: cited from earlier work
[7] = target: T1, horseradish peroxidase; assay: Electron spin resonance spectroscopy of radicals in a peroxidase system; settings: for Effect on ascorbyl radical concentration (ESR): 1 mM added to ascorbate/clozapine/horseradish peroxidase/hydrogen peroxide system
[8] = test system: glutathione and protein from human myeloperoxidase and human leucocytes; assay: Reactive species formation and covalent binding of clozapine metabolites, tests as for clozapine
[9] = test system: glutathione and protein from human myeloperoxidase and human leucocytes

For `O=C1O[C@H]([C@@H](O)CO)C([O-])=C1O.[Na+]` [sodium ascorbate], the “Effect on metabolism of clozapine (UV signal changes)” value ([1]; sodium ascorbate 0.7 mM added to the incubation) was “reversed”, the “Effect on clozapine metabolism (metabolite formation)” value ([2]; sodium ascorbate 0.7 mM) was “completely reversed” and the “Effect on covalent binding of clozapine to enzymatic protein” value ([2]; sodium ascorbate 0.7 mM) was “no radioactivity coeluted with the enzymatic protein”. The “Effect on oxygen consumption i.e. initial clozapine radical formation” value ([3]; sodium ascorbate 0.7 mM) was “prevented”, the “Effect on clozapine binding to PMN's” value ([4]; 5 mM sodium ascorbate, incubations containing opsonized zymosan) was “reduction of clozapine binding to PMN's” and the “Effect on covalent binding of clozapine to PMN's” value ([4]; radiolabeled clozapine and sodium ascorbate incubated together with PMN's, worded "may also be shown") was “reduction of covalent binding”.
With `CN1CCN(C2=Nc3cc(Cl)ccc3Nc3ccccc32)CC1` [clozapine, 8-chloro-11-(4-methyl-1-piperazinyl)-5H-dibenzo[b,e][1,4]diazepine] the “Clozapine metabolism by peroxidases (disappearance of UV absorption at 290 nm)” value ([1]; clozapine 100 μM, 1-5 μg/ml horseradish peroxidase, 50 μM hydrogen peroxide, pH 7.4) was “demonstrated”, the “Covalent binding of clozapine-derived material to the enzyme (coelution of radioactivity with enzymatic protein)” value ([2]; clozapine 100 μM, enzyme and hydrogen peroxide present) was “Covalent binding of clozapine-derived material to the enzyme was indicated” and the Oxygen consumption [5] was “observed”. For the same compound, the “Oxygen consumption as indicator of radical formation” value ([3]; clozapine 100 μM, horseradish peroxidase 5 μg/ml, GSH 10 mM, pH 7.4) was “indicates an initial clozapine radical formation”, the “Antipsychotic efficacy compared with standard neuroleptics” value ([6]; clinical studies) was “superior” and the “Patients refractory to standard neuroleptics who significantly improved” value ([6]; clozapine treatment) was “approximately 30%”. The “Risk of granulocytopenia and agranulocytosis” value ([6]; clozapine treatment) was “apparent increased risk”, the “Increase in steady-state concentration of the ascorbyl radical when clozapine is present” value ([7]; 100 μM sodium ascorbate, 100 μM clozapine, horseradish peroxidase 8.3 μg/ml, hydrogen peroxide 50 μM, pH 7.4) was “over two fold” and the “Glutathionyl thiyl radicals by ESR (DMPO trapping)” value ([7]; absence of sodium ascorbate, DMPO 100 mM) was “detected”.
With `O=C1O[C@H]([C@@H](O)CO)C(O)=C1O` [ascorbic acid, L-ascorbic acid] the “Effect on covalent binding of clozapine and its metabolites” value ([8]; intact human cells, radical scavenger) was “prevented”.
With `CSc1ccc2c(c1)N=C(N1CCNCC1)c1ccccc1N2` [8-methylthio-11-(1-piperazinyl)-5H-dibenzo-[b,e][1,4]diazepine] the “Formation of reactive species” value [9] was “form reactive species such as free radicals”.
For `NC(=O)C1=CN([C@@H]2O[C@H](COP(=O)(O)OP(=O)(O)OC[C@H]3O[C@@H](n4cnc5c(N)ncnc54)[C@H](OP(=O)(O)O)[C@@H]3O)[C@@H](O)[C@H]2O)C=CC1` [NADPH], the “Effect on ascorbyl radical concentration (ESR)” value [7] was “almost absent”.
In the case of `CSc1ccc2c(c1)N=C(N1CCN(C)CC1)c1ccccc1N2` [8-methylthio-11-(4-methyl-1-piperazinyl)-5H-dibenzo[b,e][1,4]diazepine], the “Formation of reactive species” value [9] is reported as “form reactive species such as free radicals”.
With `CN1CCN(C2=Nc3cc(O)ccc3Nc3ccccc32)CC1` [8-hydroxy-11-(4-methyl-1-piperazinyl)-5H-dibenzo[b,e][1,4]diazepine] the “Formation of reactive species” value ([8]; tests as for clozapine, worded "can also be shown") was “form reactive species such as free radicals”.
In the case of `Clc1ccc2c(c1)N=C(N1CCNCC1)c1ccccc1N2` [8-chloro-11-(1-piperazinyl)-5H-dibenzo[b,e][1,4]diazepine], the “Formation of reactive species” value [9] is reported as “form reactive species such as free radicals”.
For `N[C@@H](CCC(=O)N[C@@H](CS)C(=O)NCC(=O)O)C(=O)O` [glutathione], the “Effect on covalent binding to the enzymatic protein and metabolite formation” value ([2]; GSH 10 mM, pH 7.4, added to standard incubation) was “reduced but to a lesser extent” and the “Effect on ascorbyl radical concentration (ESR)” value [7] was “only marginally affected”.
In the case of `C[N+]1([O-])CCN(C2=Nc3cc(Cl)ccc3Nc3ccccc32)CC1` [8-chloro-11-(4-methyl-4-oxo-1-piperazinyl)-5H-dibenzo[b,e][1,4]diazepine], the “Formation of reactive species” value [9] is reported as “form reactive species such as free radicals”.
For `Oc1ccc2c(c1)N=C(N1CCNCC1)c1ccccc1N2` [8-hydroxy-11-(1-piperazinyl)-5H-dibenzo[b,e][1,4]diazepine], the “Formation of reactive species” value [9] was “form reactive species such as free radicals”.
With `CN1CCN(C2=Nc3cc(Cl)c(O)cc3Nc3ccccc32)CC1` [7-hydroxy-8-chloro-11-(4-methyl-1-piperazinyl)-5H-dibenzo[b,e][1,4]diazepine] the “Formation of reactive species” value [9] was “form reactive species such as free radicals”.
